Here are results for 3 molecules from US20240148038A1, “TASTE-MASKING COMPOUNDS AND COMPOSITIONS AND USES THEREOF” (HEALTHTECH BIO ACTIVES, S.L.U., priority 2021, published 2024).

A short description of data set [1]: Panel evaluation in limonin solution (greening disease model). The data set is classed as in vivo. Conditions: 200 ppm H2S in limonin 50 ppm solution. The procedure: In order to determine the reduction in unpleasant taste impressions (bitterness) by hesperidin in a greening disease model, a limonin solution was prepared as indicated in Table 6. This solution was used for testing. Limonin (99.66%) was purchased from TargetMol.
The effect of H2S (200 ppm) in a limonin solution (50 ppm) was evaluated. A panel of experts was used to determine the reduction in unpleasant taste impressions of the limonin-containing preparation.

The nature of data set [2]: Panel evaluation in protein milkshake. The data set is classed as in vivo. Particulars: 100 ppm or 200 ppm H2S. The procedure: NaOH:H2O solutions containing different concentrations (100 ppm and 200 ppm) of Hesperidin 2S were prepared as explained above (Table 1) and added to a protein milkshake prepared as indicated in Table 12 below.
The taste masking effect was assayed, following an analogous procedure to the one used in Example 1. A panel of experts was used to determine the reduction in unpleasant taste impressions of the protein milkshake preparations after addition of H2S.

The nature of data set [3]: Panel evaluation in plant-based burger containing oleuropeins. Format: in vivo. Conditions: plant-based burger with 2000 ppm Olews 40%. The procedure:
Reduction of unpleasant taste impression in a plant-based burger was evaluated using different concentrations of H2S (100 ppm and 200 ppm). Hesperidin 2S (dry powder) was incorporated into the preparations containing 2000 ppm Olews 40% provided by HealthTech Bio Actives, S.L.U. (Beniel, Spain) (2000 ppm Olews 40%=[…]) as indicated in Table 11 below:
A panel of experts was used to determine the reduction in unpleasant taste impressions of the plant-based burger preparations.

A short description of data set [4]: Panel evaluation in fresh squeezed orange juices. Conditions: 100 ppm or 200 ppm H2S; fresh squeezed orange juice. Format: in vivo. The method, then: NaOH:H2O solutions containing different concentrations (100 ppm and 200 ppm) of Hesperidin 2S were prepared as explained above (Table 1) and added to fresh squeezed orange juices.
A panel of experts was used to determine the reduction in unpleasant tastes of the fresh squeezed orange juices after addition of different concentrations of H2S.

The nature of data set [5]: Panel evaluation in orange juices containing oleuropeins. Format: in vivo. Particulars: orange juice with 500 ppm Olews 40%. The method, then:
NaOH:H2O solutions containing different concentrations (100 ppm and 200 ppm) of Hesperidin 2S were prepared as explained above (Table 1) and added to orange juices containing 500 ppm Olews 40% (500 ppm Olews 40%=160 ppm oleuropein). Olews 40% provided by HealthTech Bio Actives S.L.U. (Beniel, Spain).
The taste masking effect against oleuropeins was assayed following an analogous procedure to the one used in Example 1 for paracetamol.
For each tested solution, a test panel determined the equibitter oleuropein solution, and the masking effect was calculated as explained in Example 1. A panel of experts was used to determine the reduction in unpleasant taste impressions of the orange juice preparations containing oleuropeins after addition of H2S.

A short description of data set [6]: Panel evaluation in crackers with reduced NaCl containing KCl. Conditions: 200 ppm H2S. Format: in vivo. The procedure:
A dosage of 200 ppm of H2S was added to crackers with reduced content of sodium chloride (NaCl) and containing potassium chloride (KCl; Panreac). The composition of the crackers is disclosed in Table 4 below:
The taste masking effect was assayed, following an analogous procedure to the one disclosed in Example 1. A panel of experts was used to determine the reduction in unpleasant taste impressions of the potassium chloride-containing preparations after addition of H2S.

Data set [7] is described as follows: Panel evaluation in greening affected orange juices. Format: in vivo. Particulars: greening affected orange juice. The procedure:
Orange Juice samples obtained from oranges from trees afflicted with greening disease were provided by F&M Solutions (Brasil). The juice samples were prepared by squeezing oranges collected from afflicted tree branches from local Brazilian farmers. The squeezed orange juice was bottled and pasteurized by standard methods well known in the art.
Different concentrations of Hesperidin 2S (100 ppm and 200 ppm) were evaluated in the orange juices from greening afflicted oranges.
A panel of experts was used to determine the reduction in unpleasant taste impressions of the different samples.

Data set [8] can be described thus: Panel evaluation in tonic water. Format: in vivo. Particulars: quinine salt 78 ppm. The procedure:
NaOH:H2O solutions containing different concentrations (100 ppm and 200 ppm) of Hesperidin 2S were prepared as explained above (Table 1) and added to a tonic water samples prepared as indicated in Table 10 below:
A panel of experts was used to determine the reduction in unpleasant taste impression of the different samples.

Data set [9] is described as follows: Solubility in water. The data set is classed as physicochemical. The procedure:
Hesperidin 2S has a very low solubility in water (less than 10 ppm). However, in presence of NaOH, its solubility increases. In order to study the component in liquid matrixes, a non-heated H2O—NaOH solution was prepared (Table 1).

Data set [10] can be described thus: Masking bitterness of paracetamol: test panel, equibitter paracetamol solution. The data set is classed as in vivo. The procedure: The bitter masking effect of hesperidin against paracetamol was assayed. The anti-bittering effect was measured as a dose-response profile vs. a solution of paracetamol.
A calibrated test panel compared each solution with several solutions of paracetamol in water at different concentrations and determined the equibitter paracetamol solution. The equibitter solution was calculated as the average of all the evaluations of the panel.
The masking effect or percentage of bitterness reduction was then calculated from the reference amount of paracetamol contained in each tested solution (5000 ppm) and the amount of paracetamol in the equibitter solution, using the following formula: […]
Thus, for example, a solution containing 5000 ppm of paracetamol and 250 ppm of hesperidin was equibitter to a solution containing 4000 ppm of paracetamol. Therefore, the masking effect was 20%.
The bitter masking effect of a racemic hesperidin (57% hesperidin 2S: 43% hesperidin 2R; purchased by HealthTech Bio Actives, S.L.U. Beniel, Spain) against paracetamol was also assayed. The anti-bittering effect was measured as a dose-response profile vs. a solution of paracetamol as described above.
Further, the bitter masking effect of a different flavonoid compound, neodiosmin (purchased by HealthTech Bio Actives, S.L.U. Beniel, Spain), was also tested. The anti-bittering effect was measured as a dose-response profile vs. a solution of paracetamol as explained before.

Data set [11] can be described thus: Panel evaluation in dark chocolate 95%. The data set is classed as in vivo. The method, then: Reduction of unpleasant taste impressions in dark chocolate (95%) preparations was evaluated using different concentrations of H2S (100 ppm and 200 ppm).
Hesperidin 2S (dry powder) was incorporated into a sample of melted dark chocolate (95%). The liquid mass was cooled and mold, obtaining a solid chocolate.
A panel of experts was used to determine the reduction in unpleasant taste impressions of the dark chocolate (95%) preparations.

Setting [12] is: 10 ppm test substance in 5000 ppm paracetamol aqueous solution.
Where [13] appears, read: 50 ppm test substance in 5000 ppm paracetamol aqueous solution.
The mark [14] stands for this setting: 100 ppm test substance in 5000 ppm paracetamol aqueous solution.
[15] abbreviates: 250 ppm test substance in 5000 ppm paracetamol aqueous solution.
Where [16] appears, read: 250 ppm test substance in 5000 ppm paracetamol aqueous solution, listed as hesperidin.
[17] abbreviates: 500 ppm test substance in 5000 ppm paracetamol aqueous solution.

For `COc1ccc([C@@H]2CC(=O)c3c(O)cc(O[C@@H]4O[C@H](CO[C@@H]5O[C@@H](C)[C@H](O)[C@@H](O)[C@H]5O)[C@@H](O)[C@H](O)[C@H]4O)cc3O2)cc1O` (racemic) [Hesperidin 2S, (2S)-5-hydroxy-2-(3-hydroxy-4-methoxyphenyl)-7-[(2S,3R,4S,5S,6R)-3,4,5-trihydroxy-6-{[(2R,3R,4R,5R,6S)-3,4,5-trihydroxy-6-methyloxan-2-yl]oxymethyl}oxan-2-yl]oxy-2,3-dihydrochromen-4-one], the “% of bitterness reduction” value in data set [1] was determined as 30%; in data set [10] (setting [12]), 5%; in data set [10] (setting [13]), 11%; in data set [10] (setting [14]), 20%; in data set [10] (setting [15]), 37%; in data set [10] (250 ppm test substance in 5000 ppm paracetamol aqueous solution, listed as H2S) it was 37%. Besides, the “% of bitterness reduction” value in [10] (setting [16]) is 20%; in data set [10] (250 ppm test substance in 5000 ppm paracetamol aqueous solution, listed as non-racemic hesperidin 2S), 37%. In data set [1], this molecule had an Equibitter of 35 ppm. Moreover, the bitter taste entry in data set [2] was “reduced”. In addition, in data set [2], the dry fava notes result was “reduced”. In addition, the bitterness result in data set [3] (100 ppm H2S) is “decrease”; in data set [8] (100 ppm H2S), “significant reduction”; in [8] (200 ppm H2S), “reduction”; in data set [11] (200 ppm H2S as printed), “decrease”. The flavonoid notes entry in [3] (100 ppm H2S), in data set [3] (200 ppm H2S) and in data set [11] (200 ppm H2S) was “not present” each time. In addition, the woody off-flavor notes entry in [3] (100 ppm H2S) and in [3] (200 ppm H2S) was “reduced” throughout. The “bitterness and bean notes” value in [3] (200 ppm H2S) is recorded as “decreased”. In data set [4], the “astringent and bitter taste” value is “clearly reduced”. Moreover, the orange notes result in data set [5] (200 ppm H2S (FIG. 1B)) is recorded as “enhanced”. The “woody and bitter taste coming from the oleuropein masked” value in data set [5] (200 ppm H2S (FIG. 1B)) amounted to 40%. The “woody and bitter taste” value in [5] (200 ppm H2S as printed (FIG. 1A)) was “masked”. The “pungent and metallic notes” value in [6] (KCl-containing crackers) is “suppressed”. Besides, the saltiness result in data set [6] (crackers with reduced sodium chloride) was “increase”. Moreover, the “bitterness, acidity and astringency” value in data set [7] (100 ppm H2S) is given as “significant reduction”; in data set [7] (200 ppm H2S, to a lesser extent than 100 ppm) it was “reduction”. The flavonoid note result was “noticeable” in data set [7] (100 ppm H2S) and “increased” in data set [7] (200 ppm H2S). The “green orange notes and bitter aftertaste” value in [7] (100 ppm H2S) is on record as “Reduction”; in data set [7] (200 ppm H2S), “reduction”. Moreover, the values for the overall orange notes result in data set [7] (100 ppm H2S) and in data set [7] (200 ppm H2S) were “slight reduction” and “reduction”, respectively. Also, in [9] (in presence of NaOH), the “solubility in presence of NaOH” value was “increases”. Also, the solubility in water result in data set [9] (water) is on record as “less than 10 ppm”. The Equibitter paracetamol concentration in data set [10] (setting [12]) amounted to 4750 ppm; in [10] (setting [13]), 4450 ppm; in data set [10] (setting [14]), 4000 ppm; in [10] (setting [15]), 3150 ppm; in [10] (setting [16]) it was 4000 ppm. The bitterness and astringency result in data set [11] (200 ppm H2S) was “decreased”. Also, the cocoa notes entry in data set [11] (200 ppm H2S as printed) is recorded as “slightly enhanced”.
On to `COc1ccc([C@@H]2CC(=O)c3c(O)cc(O[C@@H]4O[C@H](CO[C@@H]5O[C@@H](C)[C@H](O)[C@@H](O)[C@H]5O)[C@@H](O)[C@H](O)[C@H]4O)cc3O2)cc1O` (racemic) [Racemic Hesperidin, hesperidin], for which the “% of bitterness reduction” value in data set [10] (setting [12]) worked out at 4%; in [10] (setting [13]), 6%; in data set [10] (setting [14]), 13%; in [10] (setting [15]), 18%. Further, the Equibitter paracetamol concentration in data set [10] (setting [12]) is 4800 ppm; in data set [10] (setting [13]), 4700 ppm; in [10] (setting [14]), 4350 ppm; in [10] (setting [15]) it was 4100 ppm.
Take `COc1ccc(-c2cc(=O)c3c(O)cc(O[C@@H]4O[C@H](CO)[C@@H](O)[C@H](O)[C@H]4O[C@@H]4O[C@@H](C)[C@H](O)[C@@H](O)[C@H]4O)cc3o2)cc1O` [Neodiosmin, neodiosmin, reference compound]: the “% of bitterness reduction” value in data set [10] (setting [13]) was 12%; in data set [10] (setting [14]), 12%; in data set [10] (setting [15]) it was 16%; in data set [10] (setting [17]), 24%. For the same molecule, the Equibitter paracetamol concentration in data set [10] (setting [13]) was found to be 4400 ppm; in data set [10] (setting [14]) it was 4400 ppm; in data set [10] (setting [15]) it was 4200 ppm; in data set [10] (setting [17]), 3800 ppm.
